# Measured values reported in ChEMBL document CHEMBL1136842, “5-Nitrofuran-2-yl derivatives: synthesis and inhibitory activities against growing and dormant mycobacterium species” (Bioorg Med Chem Lett, 2009).
# Assays:
# [1] = system: Mycobacterium tuberculosis; test: Antimycobacterial activity against Mycobacterium tuberculosis H37Rv by agar dilution method; format: functional
# [2] = system: Mycolicibacterium smegmatis; test: Antimycobacterial activity against Mycobacterium smegmatis ATCC 14468 by agar dilution method; format: functional
# [3] = system: Mycolicibacterium fortuitum; test: Antimycobacterial activity against Mycobacterium fortuitum MTCC 951 by agar dilution method; format: functional
# Mycolicibacterium phlei = test: Antimycobacterial activity against Mycobacterium phlei MTCC 1724 by agar dilution method; format: functional
# Mycolicibacterium vaccae = test: Antimycobacterial activity against Mycobacterium vaccae MTCC 997 by agar dilution method; format: functional
# Mycobacterium kansasii = test: Antimycobacterial activity against Mycobacterium kansasii MTCC 3058 by agar dilution method; format: functional
# Vero = test: Cytotoxicity against african green monkey Vero cells after 72 hrs by MTT assay; format: cell-based; conditions: Chlorocebus sabaeus
# [4] = system: Mycolicibacterium smegmatis; test: Antimycobacterial activity against log-phase culture of Mycobacterium smegmatis ATCC 14468 by agar dilution method; format: functional
# [5] = system: Mycolicibacterium smegmatis; test: Antimycobacterial activity against 6-week-starved culture of Mycobacterium smegmatis ATCC 14468 by agar dilution method; format: functional
# [6] = system: Mycobacterium tuberculosis; test: Antimycobacterial activity against log-phase culture of Mycobacterium tuberculosis H37Rv by agar dilution method; format: functional
# [7] = system: Mycobacterium tuberculosis; test: Antimycobacterial activity against 6-week-starved culture of Mycobacterium tuberculosis H37Rv by agar dilution method; format: functional
# [8] = Ratio of IC50 for african green monkey Vero cells to MIC for Mycobacterium tuberculosis H37Rv; format: functional
Compound,MIC [1],MIC [2],MIC [3],MIC (Mycolicibacterium phlei),MIC (Mycolicibacterium vaccae),MIC (Mycobacterium kansasii),IC50 (Vero),MIC [4],MIC [5],MIC [6],MIC [7],Ratio [8]
Cc1ccc(NC(=S)N/N=C/c2ccc([N+](=O)[O-])o2)c(C)c1,2.45 µM,314 µM,39.2 µM,4.9 µM,39.2 µM,9.8 µM,> 196 µM,,,,,
NS(=O)(=O)c1ccc(NC(=S)N/N=C/c2ccc([N+](=O)[O-])o2)cc1,2.1 µM,8.4 µM,33.8 µM,16.8 µM,2.1 µM,33.8 µM,< 169 µM,8.4 µM,75.6 µM,,,
Cc1cc(C)nc(NC(=S)N/N=C/c2ccc([N+](=O)[O-])o2)c1,2.4 µM,4.8 µM,39.1 µM,39.1 µM,39.1 µM,39.1 µM,< 196 µM,4.8 µM,91.2 µM,,,
O=[N+]([O-])c1ccc(/C=N/NC(=S)Nc2ccc(Cl)cc2)o1,1.23 µM,19.1 µM,38.4 µM,9.6 µM,9.6 µM,38.4 µM,> 192 µM,19.1 µM,134 µM,,,
Cc1cccc(C)c1NC(=S)N/N=C/c1ccc([N+](=O)[O-])o1,4.9 µM,39.2 µM,39.2 µM,9.8 µM,39.2 µM,39.2 µM,> 196 µM,,,,,
O=[N+]([O-])c1ccc(/C=N/NC(=S)Nc2ccccc2)o1,10.7 µM,172 µM,43 µM,10.7 µM,43 µM,5.3 µM,> 215 µM,,,,,
Cc1ccc(NC(=S)N/N=C/c2ccc([N+](=O)[O-])o2)cc1,5.1 µM,41 µM,41 µM,2.5 µM,41 µM,20.5 µM,> 205 µM,,,,,
Cc1ccc(C)c(NC(=S)N/N=C/c2ccc([N+](=O)[O-])o2)c1,1.2 µM,157 µM,78.5 µM,4.8 µM,2.4 µM,78.5 µM,> 196 µM,,,1.1 µM,154 µM,
O=[N+]([O-])c1ccc(/C=N/NC(=S)Nc2ncc(Br)cc2Br)o1,0.22 µM,6.9 µM,3.4 µM,6.9 µM,3.4 µM,1.7 µM,139 µM,6.9 µM,124 µM,0.22 µM,13.9 µM,632.2
NNC(=O)c1ccncc1 [ISONIAZID],0.66 µM,45.6 µM,22.8 µM,91.2 µM,182 µM,182 µM,> 456 µM,45.6 µM,> 729 µM,0.66 µM,729 µM,
CCc1cccc(CC)c1NC(=S)N/N=C/c1ccc([N+](=O)[O-])o1,1.1 µM,36 µM,72.1 µM,36 µM,72.1 µM,36 µM,> 180 µM,,,1.2 µM,36 µM,
O=[N+]([O-])c1ccc(/C=N/NC(=S)Nc2ccc(Cl)cn2)o1,1.2 µM,2.4 µM,38.3 µM,38.3 µM,4.8 µM,4.8 µM,192 µM,2.4 µM,43.2 µM,1.2 µM,38.3 µM,
COc1ccc(NC(=S)N/N=C/c2ccc([N+](=O)[O-])o2)cc1,9.7 µM,39 µM,39 µM,4.85 µM,78 µM,39 µM,> 195 µM,,,,,
Cc1cccnc1NC(=S)N/N=C/c1ccc([N+](=O)[O-])o1,5.1 µM,20.5 µM,10.2 µM,10.2 µM,20.5 µM,5.1 µM,< 205 µM,,,,,
O=C(O)c1cn(C2CC2)c2cc(N3CCNCC3)c(F)cc2c1=O [CIPROFLOXACIN],,2.35 µM,,,,9.45 µM,> 188 µM,,,,,
O=[N+]([O-])c1ccc(/C=N/NC(=S)Nc2ccccn2)o1,12.1 µM,48.4 µM,48.4 µM,6 µM,24.2 µM,12.1 µM,214 µM,,,,,
O=[N+]([O-])c1ccc(/C=N/NC(=S)Nc2ccccc2Br)o1,0.54 µM,33.8 µM,33.8 µM,16.9 µM,16.9 µM,8.4 µM,> 169 µM,,,0.54 µM,33.8 µM,
COc1ccc(NC(=S)N/N=C/c2ccc([N+](=O)[O-])o2)c(OC)c1,4.4 µM,35.6 µM,35.6 µM,4.4 µM,71.1 µM,35.6 µM,> 178 µM,,,,,
Cc1ccnc(NC(=S)N/N=C/c2ccc([N+](=O)[O-])o2)c1,2.6 µM,20.5 µM,5.1 µM,5.1 µM,2.6 µM,5.1 µM,< 205 µM,,,,,
CO[C@H]1/C=C/O[C@@]2(C)Oc3c(C)c(O)c4c(O)c(c(/C=N/N5CCN(C)CC5)c(O)c4c3C2=O)NC(=O)/C(C)=C\C=C\[C@H](C)[C@H](O)[C@@H](C)[C@@H](O)[C@@H](C)[C@H](OC(C)=O)[C@@H]1C [RIFAMPIN],0.23 µM,1.89 µM,1.89 µM,30.4 µM,3.8 µM,7.59 µM,> 75.9 µM,1.89 µM,22.6 µM,0.23 µM,15.2 µM,
